Measurements: patent US20180002366A1, “4'-SUBSTITUTED NUCLEOSIDE REVERSE TRANSCRIPTASE INHIBITORS” (MERCK SHARP & DOHME CORP., priority 2014, published 2018)

How the values were obtained:
[1] = biological target: T1, HIV-1 RT enzyme (Human immunodeficiency virus type 1 group M subtype B, UniProt P03366); test: RT Polymerase Assay; format: biochemical
T1 construct: Full-length wild-type and 2 mutant RT proteins were expressed in Escherichia coli BL21(DE3) cells and purified; made in house; host or cells: Escherichia coli BL21(DE3)
Experimental: Full-length wild-type and 2 mutant RT proteins were expressed in Escherichia coli BL21(DE3) cells and purified. Briefly, the heterodimeric nucleic acid substrate used in the HIV-1 RT polymerase reactions was generated by annealing biotinylated DNA primer to a 500 nucleotide RNA template. The HIV-1 RT enzyme (final concentration of […]) was combined with an inhibitor compound or DMSO (10% DMSO in the final reaction mixture) in assay buffer (62.5 mM Tris-HCl, pH 7.8, 1.25 mM dithiothreitol, 7.5 mM MgCl2, 100 mM KCl, 0.03% CHAPS, 0.125 mM EGTA). This mixture was pre-incubated for 30 minutes at room temperature in microtiter plates. The polymerization reaction was initiated by the addition of template/primer substrate (final concentration: 16.6 nM) and dNTPs (final concentration: 2 μM dCTP, dGTP, dATP, and 66.6 nM Ru-dUTP). After 90 min of incubation at 37° C., reactions were quenched by the addition of EDTA (25 mM). The resulting mixture was incubated for an additional 5 minutes at room temperature followed by transferring the solution (50 μL) to blocked avidin plate from Meso Scale Discovery (MSD). The mixtures were incubated at room temperature for 60 min prior to the quantification of the reaction product via an ECL 6000 imager instrument.

[2] = test system: HIV-1 (H9IIIB virus) replication in MT4-GFP cells; test: Viking Assay: antiviral potency in a multiple round HIV-1 infection assay; format: cell-based; settings: Human immunodeficiency virus 1, 10% normal human serum, inhibition of reproductive ratio R0 between ~48 h and ~72 h post-infection, read-out: Viking, IC50 (10% NHS)
Experimental: Assessing Antiviral Potency in a Multiple Round HIV-1 Infection Assay.
Cells were then washed and re-suspended in either RPMI 1640 containing 10% or 50% normal human serum at 1.6×10^5 cells/mL (10% or 50% NHS conditions) or in 100% normal human serum at 2×10^5 cells/mL (100% NHS conditions).
The increase in the number of green cells over ˜24 h period gives the reproductive ratio, R0, which is typically 5-15 and has been shown experimentally to be in logarithmic phase (data not shown). Inhibition of R0 is calculated for each well, and IC50s determined by non-linear 4-parameter curve fitting.

[3] = test system: HIV-1 (H9IIIB virus) replication in MT4-GFP cells; test: Antiviral Persistence assay; settings: for Fold shift IC50 72 h/24 h: ratio of IC50 72 h to IC50 24 h
Experimental: HIV-1 replication was monitored using MT4-gag-GFP clone D3 (hereafter designate MT4-GFP), which are MT-4 cells modified to harbor a GFP reporter gene, the expression of which is dependent on the HIV-1 expressed proteins tat and rev. Productive infection of an MT4-GFP cell with HIV-1 results in GFP expression approximately 24 h post-infection. MT4-GFP cells were maintained at 37° C./5% CO2/90% relative humidity in RPMI 1640 supplemented with 10% fetal bovine serum, 100 U/mL penicillin/streptomycin, and 400 μg/mL G418 to maintain the reporter gene. For 72 hour time point persistence assay (72 h plate) and 24 hour time point control assay (24 h plate), MT4-GFP cells were washed and re-suspended in RPMI 1640 containing 10% normal human serum at either 1.6×10^5 or 2.4×10^5 cells/mL (10% NHS). Compound plates were prepared by dispensing compounds dissolved in DMSO into wells of 384 well cell culture plates ([…]) using an ECHO acoustic dispenser. Each compound was tested in a 10 point serial 3-fold dilution (typical final concentrations: 4.2 μM-0.21 nM). Controls included no inhibitor (DMSO only) and a combination of three antiviral agents (efavirenz, indinavir, and an integrase strand transfer inhibitor at final concentrations of 4 μM each). Cells were added (50 μL/well) to compound plates and were incubated at 37° C./5% CO2/90% relative humidity for 24 hours. The cells were washed with 5×40 uL of RPMI 1640 supplemented with 10% NHS and 100 U/mL penicillin/streptomycin. 72 h plate was return back to 37° C. incubator for additional 48 hour incubation. 40 uL of the cells from each well of the 24 h plate or the 72 h plate (after 48 hour incubation post wash) were transferred to a poly-D-lysine coated plate. The cells were then infected with H9IIIB virus at an approximate multiplicity of infection of 0.1 in the same incubation conditions.
Infected cells were quantified at ˜24 h post-infection, by counting the number of green cells in each well using an Acumen eX3 scanner. IC50s for the compounds in Table 4 were determined by non-linear 4-parameter curve fitting.
The antiviral persistence assay is meant to assess for the persistence of antiviral activity upon removal of the nucleoside. […] The publication AIDS Research and Therapy, 2009, 6:5, highlights the value of antiviral persistence.

[4] = Human immunodeficiency virus 1, 24 h, read-out: IC50 24 h (nM)
[5] = Human immunodeficiency virus 1, read-out: IC50 72 h (nM)

Q: How did the IC50 [1] turn out when C#C[C@]1(COP(=O)(O)OP(=O)(O)OP(=O)(O)O)O[C@@H](n2cc(Cl)c3c(N)ncnc32)C[C@@H]1O [Example 17, ammonium ((2R,3S,5R)-5-(4-amino-5-chloro-7H-pyrrolo[2,3-d]pyrimidin-7-yl)-2-ethynyl-3-hydroxytetrahydrofuran-2-yl)methyl triphosphate] was run?
A: 842 nM

Q: What does the source list for C#C[C@]1(CO)O[C@@H](n2cc(Br)c3c(N)ncnc32)C[C@@H]1O [Example 5, (2R,3S,5R)-5-(4-amino-5-bromo-7H-pyrrolo[2,3-d]pyrimidin-7-yl)-2-ethynyl-2-(hydroxymethyl)tetrahydrofuran-3-ol]?
A: IC50 [2]: 209 nM; IC50 [3, 4]: 22000 nM; IC50 [3, 5]: > 42000 nM; Fold shift IC50 72 h/24 h [3]: >1.9

Q: For C#C[C@]1(CO)O[C@@H](n2cc(Cl)c3c(N)ncnc32)C[C@@H]1O [Example 6, (2R,3S,5R)-5-(4-amino-5-chloro-7H-pyrrolo[2,3-d]pyrimidin-7-yl)-2-ethynyl-2-(hydroxymethyl)tetrahydrofuran-3-ol], which IC50 [2] is on record?
A: 128 nM

Q: And the IC50 [3, 4]?
A: 99 nM

Q: What about the IC50 [3, 5] of the same compound?
A: 970 nM

Q: And the “Fold shift IC50 72 h/24 h” value [3]?
A: 9.8

Q: What does the source list for C#C[C@]1(CO)O[C@@H](n2cc(I)c3c(N)ncnc32)C[C@@H]1O [Example 7, (2R,3S,5R)-5-(4-amino-5-iodo-7H-pyrrolo[2,3-d]pyrimidin-7-yl)-2-ethynyl-2-(hydroxymethyl)tetrahydrofuran-3-ol]?
A: IC50 [2]: 1030 nM; IC50 [3, 4]: 17000 nM; IC50 [3, 5]: 17000 nM; Fold shift IC50 72 h/24 h [3]: 1

Q: Which results are given for N#C[C@]1(CO)O[C@@H](n2ccc3c(N)ncnc32)C[C@@H]1O [Example 10, (2R,3S,5R)-5-(4-amino-7H-pyrrolo[2,3-d]pyrimidin-7-yl)-3-hydroxy-2-(hydroxymethyl)tetrahydrofuran-2-carbonitrile]?
A: IC50 [2]: 128 nM; IC50 [3, 4]: 170 nM; IC50 [3, 5]: 1800 nM; Fold shift IC50 72 h/24 h [3]: 10.5

Q: Which results are given for C#C[C@]1(CO)O[C@@H](n2cc(C)c3c(N)ncnc32)C[C@@H]1O [Example 3, (2R,3S,5R)-5-(4-amino-5-methyl-7H-pyrrolo[2,3-d]pyrimidin-7-yl)-2-ethynyl-2-(hydroxymethyl)tetrahydrofuran-3-ol]?
A: IC50 [2]: 485 nM; IC50 [3, 4]: 470 nM; IC50 [3, 5]: 2500 nM; Fold shift IC50 72 h/24 h [3]: 5.3

Q: Which IC50 [1] does the source give for C#C[C@]1(COP(=O)(O)OP(=O)(O)OP(=O)(O)O)O[C@@H](c2cnc3c(N)ncnn23)C[C@@H]1O [Example 21, ammonium ((2R,3S,5R)-5-(4-aminoimidazo[2,1-f][1,2,4]triazin-7-yl)-2-ethynyl-3-hydroxytetrahydrofuran-2-yl)methyl triphosphate] here?
A: 905 nM

Q: For C#C[C@]1(COP(=O)(O)OP(=O)(O)OP(=O)(O)O)O[C@@H](c2cnn3c(N)ncnc23)C[C@@H]1O [Example 20, ammonium ((2R,3S,5R)-5-(4-aminopyrazolo[1,5-a][1,3,5]triazin-8-yl)-2-ethynyl-3-hydroxytetrahydrofuran-2-yl)methyl triphosphate], which IC50 [1] is on record?
A: 1290 nM

Q: With Cc1cn([C@H]2C[C@H](N=[N+]=[N-])[C@@H](CO)O2)c(=O)[nH]c1=O [AZT, 3′-azido-3′-deoxythymidine, reference compound] as the compound, how does the IC50 [2] read?
A: 37 nM

Q: And the IC50 [3, 4]?
A: 37 nM

Q: And the IC50 [3, 5]?
A: 4710 nM

Q: What about the “Fold shift IC50 72 h/24 h” value [3] of the same compound?
A: 127

Q: Which IC50 [1] does the source give for C#C[C@]1(COP(=O)(O)OP(=O)(O)OP(=O)(O)O)O[C@@H](n2ccc3c(N)nc(Cl)nc32)C[C@@H]1O [Example 16, bis-triethylammonium ((2R,3S,5R)-5-(4-amino-2-chloro-7H-pyrrolo[2,3-d]pyrimidin-7-yl)-2-ethynyl-3-hydroxytetrahydrofuran-2-yl)methyl triphosphate] here?
A: 1820 nM

Q: For C#C[C@]1(COP(=O)(O)OP(=O)(O)OP(=O)(O)O)O[C@@H](n2ccc3c(N)ncnc32)C[C@@H]1O [Example 13, ammonium ((2R,3S,5R)-5-(4-amino-7H-pyrrolo[2,3-d]pyrimidin-7-yl)-2-ethynyl-3-hydroxytetrahydrofuran-2-yl)methyl triphosphate], which IC50 [1] is on record?
A: 933 nM
